Here are results for ten compounds from ChEMBL document CHEMBL1151728 (J Med Chem, 2008).

Series [1] deals with Acetylcholinesterase (Electrophorus electricus, UniProt O42275).
Description: Inhibition of Electric eel AChE
For series [2], the target named is Butyrylcholinesterase (Equus caballus, UniProt Q9N1N9).
Description: Inhibition of BuChE from equine serum
The subject of series [3] is Rattus norvegicus. In words: Effect on scopolamine-induced memory impairment in iv dosed Wistar rat assessed as decrease in time spent for exploration of the bait at the end of the eight-arm radial maze for 5 days. Format: functional, organism-based.
For series [4], the system named is Rattus norvegicus. In words: Effect on scopolamine-induced memory impairment in iv dosed Wistar assessed as decrease in number of errors during exploration of the bait at the end of the eight-arm radial maze for 5 days. Format: functional, organism-based.
The species entered for series [5] is Rattus norvegicus. Kind of series: Hepatotoxicity in Wistar rat liver assessed as histopathological changes. Format: toxicity, organism-based. To be noted: in vivo.

SMILES strings stand for the structures. Activity calls are given as the source filed them. No cut-off for these calls is given here.

Sequence of Acetylcholinesterase (O42275 whole entry): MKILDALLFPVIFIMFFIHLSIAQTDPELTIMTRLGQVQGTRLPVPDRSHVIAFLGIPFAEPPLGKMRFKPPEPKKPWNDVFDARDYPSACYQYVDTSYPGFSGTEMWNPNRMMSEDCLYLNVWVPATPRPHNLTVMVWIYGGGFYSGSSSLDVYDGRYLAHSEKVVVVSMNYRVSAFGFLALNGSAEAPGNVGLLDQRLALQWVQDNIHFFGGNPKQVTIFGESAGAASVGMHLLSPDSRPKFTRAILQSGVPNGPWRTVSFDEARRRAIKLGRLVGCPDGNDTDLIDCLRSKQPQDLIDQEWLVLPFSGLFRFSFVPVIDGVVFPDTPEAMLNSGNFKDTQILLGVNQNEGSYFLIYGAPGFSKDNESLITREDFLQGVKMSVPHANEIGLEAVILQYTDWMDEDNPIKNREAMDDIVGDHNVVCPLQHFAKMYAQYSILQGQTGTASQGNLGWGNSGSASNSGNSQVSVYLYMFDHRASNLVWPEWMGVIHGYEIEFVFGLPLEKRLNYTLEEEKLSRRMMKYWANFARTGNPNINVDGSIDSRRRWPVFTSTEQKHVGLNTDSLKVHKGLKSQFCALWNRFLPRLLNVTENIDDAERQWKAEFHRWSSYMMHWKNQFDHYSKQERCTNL
Sequence of Butyrylcholinesterase (Q9N1N9 whole entry): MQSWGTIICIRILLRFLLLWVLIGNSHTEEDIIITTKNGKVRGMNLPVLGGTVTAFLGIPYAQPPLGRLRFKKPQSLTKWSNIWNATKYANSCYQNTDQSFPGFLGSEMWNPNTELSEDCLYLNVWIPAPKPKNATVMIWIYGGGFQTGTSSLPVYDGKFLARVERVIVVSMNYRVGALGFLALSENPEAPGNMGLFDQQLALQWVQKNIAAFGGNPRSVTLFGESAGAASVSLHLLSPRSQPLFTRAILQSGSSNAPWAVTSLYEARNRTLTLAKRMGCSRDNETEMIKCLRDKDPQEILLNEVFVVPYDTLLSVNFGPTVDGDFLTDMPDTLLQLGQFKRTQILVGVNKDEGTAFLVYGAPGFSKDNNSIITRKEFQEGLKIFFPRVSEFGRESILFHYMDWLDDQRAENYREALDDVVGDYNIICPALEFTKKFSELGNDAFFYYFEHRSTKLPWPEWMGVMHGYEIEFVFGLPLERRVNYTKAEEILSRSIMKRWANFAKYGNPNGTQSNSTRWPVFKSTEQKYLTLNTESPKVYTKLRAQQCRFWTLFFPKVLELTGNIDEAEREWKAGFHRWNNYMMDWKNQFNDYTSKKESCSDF

As to `O=[N+]([O-])OCCCNCCCCCCCCNc1c2c(nc3ccccc13)CCCC2`, the IC50 came to 17.1 nM in series [1] and 14.8 nM in series [2].

In the case of `O=[N+]([O-])OCCNCCCCCCCCNc1c2c(nc3ccccc13)CCCC2`, the IC50 in series [1] worked out at 7.7 nM; in series [2], 17 nM.

As for `CCCNCCCCNc1c2c(nc3ccccc13)CCCC2`, the result in series [3] and in series [4] was inactive. Moreover, the IC50 in series [1] turned out to be 23.4 nM; in series [2] it was 7.2 nM.

Regarding `O=[N+]([O-])OCCCNCCCCNc1c2c(nc3ccccc13)CCCC2`, the result in series [3] and in series [4] was Active. Also, in series [5], the Activity result is on record as “Non-toxic”. The IC50 is 5.6 nM in series [1] and 9.9 nM in series [2].

As for `O=[N+]([O-])OCCCCCCNCCCCCCCCNc1c2c(nc3ccccc13)CCCC2`, the IC50 worked out at 19.6 nM in series [1] and 12.9 nM in series [2].

On to `O=C(CO[N+](=O)[O-])NCCCNc1c2c(nc3ccccc13)CCCC2`, for which the outcome in series [3] and in series [4] was Active. Also, the IC50 in series [1] was 28.2 nM; in series [2], 13.5 nM.

On to `O=[N+]([O-])OCCNCCCCCNc1c2c(nc3ccccc13)CCCC2`, for which the IC50 in series [1] was 21.6 nM; in series [2] it was 13.3 nM.

As for `O=[N+]([O-])OCCNCCNc1c2c(nc3ccccc13)CCCC2`, the outcome in series [3] and in series [4] was Active. Further, the IC50 in series [1] stood at 9.1 nM; in series [2], 7.3 nM.

As to `O=[N+]([O-])OCCCNCCCCCNc1c2c(nc3ccccc13)CCCC2`, the IC50 was found to be 15.4 nM in series [1] and 14.3 nM in series [2].

In the case of `O=[N+]([O-])OCCCNCCNc1c2c(nc3ccccc13)CCCC2`, the IC50 worked out at 13 nM in series [1] and 18.1 nM in series [2].

The IC50 is the concentration that inhibits the measured activity by half.
